Assay results published in patent US7842782B2, “Heparanase-derived peptides for vaccination of tumor patients” (Deutsches Krebsforschungszentrum Stiftung Des Öffentlichen …, priority 2003, dated 2010).

Legend:
[1] = tested on: peptide-specific T-cells from the bone marrow (BMTCs); assay: IFN-γ Enzyme-Linked Immuno Assay (ELISpot); format: cell-based, human; settings: for patients significantly reacted against peptide: BMTCs of 15 female breast cancer patients, insulin p34 negative control, 10 μg/ml peptide; for reaction of T cells in ELISpot: vs insulin
Experimental: Mononuclear cells (MNC) from periphery blood (PB) and bone marrow (BM) were isolated via Ficoll gradients (Biocoll separating solution, Biochrom AG). MNC were washed two times with RPMI 1640, transferred to uncoated cell culture dishes, and grown for two hours at 37° C., 5% CO2 in x-VIVO-20 media (BioWhittaker, Walkersville, Md.) for adhesion. Adherent cells were cultivated for 7 day in x-VIVO-20 media with the addition of GM-CSF ([…]; Behringwerke, Marburg) and IL-4 (1000 U/ml; Promocell, Heidelberg). Dendritic cells (DCs) were magnetically isolated via anti-CD-3-coated and anti-CD-19-coated magnetic beads (Dynal). Non-adherent cells were cultivated for 7 days in RPMI 1640 supplemented with 8% human AB sera (Sigma), rhuIL-2 (100 U/ml; Chiron, Ratingen) and IL-4 (60 U/ml). T cells (TCs) were purified via anti-CD-56-coated, anti-CD-19-coated and anti-CD-15-coated magnetic beads.
The number of peptide-specific T-cells from the bone marrow (BMTCs) of female patients is determined by the ELISpot method. For this purpose, a 96-well ELISpot plate (Millipore) is coated with anti-human-IFNγ antibodies (ELISpot Kit, Mabtech) over night at 4° C. and then one hour blocked with RPMI 5% AB sera (37° C., 5% CO2). 10^4 DCs, 10^5 TCs and 10 μg/ml peptide are cultivated on the IFN-γ-coated ELISpot plate for 40 hours (37° C., 5% CO2). Supernatants are discarded and the plate is developed via the ELISpot kit (Mabtech). IFN-γ producing cells are counted with Axioplan Mikroskop (Zeiss) by using the KS ELISpot software. For negative controls, HIV or insulin peptides are used. Each group is determined in triplicate. Positive results are measured via the so-called T-test (p<0.05).

[2] = tested on: CD8-positive T cells; assay: Tetramer staining (HLA-A2/peptide tetramers, flow cytometry); format: cell-based, human; settings: 2 examined patients (text summary of Table 4)
Experimental: 10^6 of each BM-MNC and PB-MNC are blocked with 5% endobulin (immunoglobulin G), incubated with tetramers on ice for 45 min and then stained with CD8-FITC (Becton Dickinson). Dead cells are identified by propidium iodide. The number of T-cells which are double positive for CD8 and tetramer are determined by flow cytometry.

Substance	patients significantly reacted against peptide [1] [%]	reaction of T cells in ELISpot ([1]; MaCa patient 503)	reaction of T cells in ELISpot ([1]; MaCa patient 579)	reaction of T cells in ELISpot ([1]; MaCa patient 581)	reaction of T cells in ELISpot ([1]; MaCa patient 639)	reaction of T cells in ELISpot ([1]; MaCa patient 753)	reaction of T cells in ELISpot ([1]; MaCa patient 790)	reaction of T cells in ELISpot ([1]; MaCa patient 590)	reaction of T cells in ELISpot ([1]; MaCa patient 923)	HLA-A2peptide staining of CD8-positive T cells [2]	reaction of T cells in ELISpot ([1]; MaCa patient 704)
D L I F G L N A L (DLIFGLNAL) [Hpa p183]	40	x (x = positive (p value < 0.05) reaction of T cells in ELISpot)	x (x = positive (p value < 0.05) reaction of T cells in ELISpot)	x (x = positive (p value < 0.05) reaction of T cells in ELISpot)	x (x = positive (p value < 0.05) reaction of T cells in ELISpot)	x (x = positive (p value < 0.05) reaction of T cells in ELISpot)	x (x = positive (p value < 0.05) reaction of T cells in ELISpot)	–	–	–	–
L L L G P L G P L (LLLGPLGPL) [Hpa p16]	33	x (x = positive (p value < 0.05) reaction of T cells in ELISpot)	x (x = positive (p value < 0.05) reaction of T cells in ELISpot)	–	x (x = positive (p value < 0.05) reaction of T cells in ELISpot)	–	x (x = positive (p value < 0.05) reaction of T cells in ELISpot)	x (x = positive (p value < 0.05) reaction of T cells in ELISpot)	x (x = positive (p value < 0.05) reaction of T cells in ELISpot)	enriched fractions of CD8-positive T cells	–
A L P P P L M L L (ALPPPLMLL) [Hpa p8]	20	x (x = positive (p value < 0.05) reaction of T cells in ELISpot)	–	–	x (x = positive (p value < 0.05) reaction of T cells in ELISpot)	–	–	–	–	enriched fractions of CD8-positive T cells	x (x = positive (p value < 0.05) reaction of T cells in ELISpot)
